Measured values reported in article PMC9699089 (Pathogens, 2022).

Experiments:
[1] = tested on: L. donovani (MHOM/IN/00/DEVI) promastigotes; test: In vitro antileishmanial activity on promastigotes, MTT assay; format: cell-based; settings: Leishmania donovani, 72 h incubation, mean +/- SD of three independent experiments
Method in brief: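 Log-phase L. donovani MHOM/IN/00/DEVI promastigotes at 10^6 parasites/mL in Schneider's medium with 20% FCS were exposed to compounds for 72 h at 27 °C, final DMSO under 0.5%. Viability was read by MTT reduction over 4 h, absorbance 570 nm (630 nm reference). IC50 came from regression, three independent experiments.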

[2] = tested on: T. brucei brucei AnTat 1.9; test: In vitro antitrypanosomal activity, Alamar Blue assay; format: cell-based, Trypanosoma brucei brucei
Method in brief: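 Bloodstream T. brucei brucei AnTat 1.9 cultured in supplemented MEM with Earle's salts and exposed to compounds in duplicate for 69 h at 37 °C. Alamar Blue then added for 5 h, with fluorescence read at ex 530/em 590 nm.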

[3] = tested on: human HepG2 cells; test: Cytotoxicity evaluation, MTT assay; format: cell-based; settings: HepG2 cells; 72 h; mean +/- SD of three independent experiments
Experimental: These cells are a commonly used human hepatocarcinoma-derived cell line that has characteristics similar to those of primary hepatocytes. These cells express many hepatocyte-specific metabolic enzymes, thus enabling the cytotoxicity of tested product metabolites to be evaluated. […] Duplicate assays were performed for each sample. Each well was microscopically examined for precipitate formation before the medium was aspirated from the wells. After aspiration, 100 µL of MTT solution (0.5 mg/mL in medium without FCS) were then added to each well. […] The MTT solution was removed, and DMSO (100 µL) was added to dissolve the resulting blue formazan crystals. Plates were shaken vigorously (300 rpm) for 5 min. The absorbance was measured at 570 nm with 630 nm as reference wavelength in a BIO-TEK ELx808 Absorbance Microplate Reader. DMSO was used as blank and doxorubicin (Sigma Aldrich) as positive control. Cell viability was calculated as percentage of control (cells incubated without compound). The CC50 was determined from the dose-response curve using TableCurve 2D V5.0 software (Systat Software, Palo Alto, CA, USA).

[4] = tested on: Plasmodium telomeric sequence FPf1T G-quadruplex; test: FRET melting assay, FPf1T; format: binding, Plasmodium falciparum; settings: tested at 0.5 μM, oligonucleotide 0.2 μM, K+ conditions
[5] = tested on: Trypanosoma 9 and 11 chromosomic sequence FTrypBT (FEBR1T) G-quadruplex; test: FRET melting assay, FtrypBT; format: binding, Trypanosoma brucei brucei; settings: tested at 0.5 μM, oligonucleotide 0.2 μM, K+ conditions
Method in brief: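 Dual-labelled FAM/TAMRA oligonucleotides (0.2 µM) pre-folded in 10 mM lithium cacodylate pH 7.2, 10 mM KCl, 90 mM LiCl, with 2 µM compound. FAM emission (ex 492/em 516 nm) followed from 25 to 95 °C at 1 °C/min; Tm is the temperature at normalized emission 0.5, compared with and without compound.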

[6] = tested on: human telomeric sequence F21T G-quadruplex; test: FRET melting assay, F21T; format: binding; settings: tested at 0.5 μM, oligonucleotide 0.2 μM, K+ conditions
[7] = tested on: F21T (DNA, G4) GGGTTAGGGTTAGGGTTAGGG; test: FRET melting; settings: 10 mM KCl, 90 mM LiCl; 10 mM lithium cacodylate pH 7.2; 0.2 µM oligonucleotide, 0.5 µM compound
[8] = tested on: Plasmodium telomeric sequence FPf8T G-quadruplex; test: FRET melting assay, FPf8T; format: binding, Plasmodium falciparum; settings: tested at 0.5 μM, oligonucleotide 0.2 μM, K+ conditions
[9] = tested on: FdxT (DNA, hairpin, hexaethyleneglycol linker between position 10 and 11) TATAGCTATATATAGCTATA; test: FRET melting; settings: 10 mM KCl, 90 mM LiCl; 10 mM lithium cacodylate pH 7.2; 0.2 µM oligonucleotide, 0.5 µM compound
[10] = tested on: human duplex sequence FdxT; test: FRET melting assay, duplex control FdxT; format: binding; settings: tested at 0.5 μM, oligonucleotide 0.2 μM, K+ conditions

N=C(N)c1ccc(OCCCCCOc2ccc(C(=N)N)cc2)cc1 [Pentamidine, reference compound]
IC50 [1]: 5.5 ± 0.8 µM
Selectivity Index HepG2/Tryp. ([2]; SI = CC50 HepG2 / IC50 Trypanosoma brucei brucei): 11,500
IC50 ([2]; Trypanosoma brucei, slender bloodstream trypomastigotes, AnTat 1.9 strain, mean +/- SD of three independent experiments, read-out: Trypanosoma brucei brucei IC50 Values Trypanos Antat 1.9): 0.2 ± 0.06 nM
CC50 [3]: 2300 ± 500 nM

C[n+]1cc(NC(=O)c2ccc3ccc4ccc(C(=O)Nc5cc6ccccc6[n+](C)c5)nc4c3n2)cc2ccccc21 [PhenDC3]
ΔTm FPf1T [4]: 24.6 °C
ΔTm FtrypBT [5]: 19.2 °C
ΔTm F21T [6]: 26.3 °C
ΔTm [7]: 26.3 ± 0.1 °C
ΔTm FPf8T [8]: 24.7 °C
ΔTm [9]: 0.1 ± 0.2 °C
ΔTm FdxT [10]: 0.1 °C
